According to ChEMBL document CHEMBL1759887, “Discovery of indole alkaloids with cannabinoid CB1 receptor antagonistic activity” (Bioorg Med Chem Lett, 2011):

Target: Cannabinoid receptor 1 (Homo sapiens, UniProt P21554)
Assay: Antagonist activity at CB1 receptor transfected in CHO cells expressing apoaequorin as a reporter for G-protein-coupled receptor-mediated calcium signaling by bioluminescence assay
Type: functional, cell-based

Chain of Cannabinoid receptor 1 (P21554 whole entry): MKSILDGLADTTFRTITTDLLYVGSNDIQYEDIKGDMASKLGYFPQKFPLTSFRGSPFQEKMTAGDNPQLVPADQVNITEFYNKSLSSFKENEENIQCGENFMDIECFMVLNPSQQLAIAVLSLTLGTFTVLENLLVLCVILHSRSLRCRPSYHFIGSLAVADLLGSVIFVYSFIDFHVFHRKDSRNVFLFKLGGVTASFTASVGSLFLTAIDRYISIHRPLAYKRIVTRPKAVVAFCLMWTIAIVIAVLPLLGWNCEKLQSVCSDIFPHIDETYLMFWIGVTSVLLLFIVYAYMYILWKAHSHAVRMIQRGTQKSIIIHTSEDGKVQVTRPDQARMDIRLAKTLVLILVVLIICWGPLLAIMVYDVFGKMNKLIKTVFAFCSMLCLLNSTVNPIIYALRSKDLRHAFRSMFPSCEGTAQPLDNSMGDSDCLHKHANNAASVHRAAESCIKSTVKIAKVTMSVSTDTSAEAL

`CC[C@H]1C[C@@H]2C[C@@]3(C(=O)OC)c4[nH]c5ccc(OC)cc5c4[C@@H]4CN([C@@H]13)[C@H]2O4` was tested, and the IC50 was 199 nM.
`CC[C@H]1C[C@@H]2C[C@@]3(C(=O)OC)c4[nH]c5ccc(OC)cc5c4[C@H]4O[C@@H]2N([C@@H]4O)[C@@H]13` gave an IC50 of 141 nM.
In the case of `CC=C1CN(C)C2Cc3c([nH]c4ccccc34)C(c3cc4[nH]c5c(c4cc3OC)CCN3CC4CC(CC)C3C5(C(=O)OC)C4)CC1C2C(=O)OC` (stereo not drawn) [VOACAMINE], the IC50 is reported as 41 nM.
